How the values were obtained:
[1] = Preliminary clinical study: side effects, pregnancy and other observations; format: in vivo, women
Description: (§1) From February 2008 to July 2010, 64 women diagnosed for ovaric endometriosis were enrolled in the study, with a mean age of 35+−7 years (+−SD). […] All of them presented one or more cysts at one or both ovaries.
(§2) 1995; 4:245-51), the suspension of the treatment for about half of each week warrants an optimal biological response in a lengthy treatment, e.g. two to six months or longer.
(§3) Pain symptoms intensity (VAS pain scale) and the size of the ovarian endometriomas (clinical and US exams) were evaluated after the first three months of treatment. If necessary, laparoscopic treatment was performed after 3 months.

E-cadherin = experiment: Immunohistochemical detection of E-cadherin in cysts from mice; format: in vivo, BALB/C mice; details: 44 mg/kg/day, 21 days, controls: diffused all over cell cytoplasm
Experimental: (§4) The day after the endometrial implant, mice of the treatment group were subjected to gavage with 100 [mu] […] The control group only received water. […] At the end of treatment, mice were killed through cervical dislocation.
(§5) Formalin-fixed samples were paraffin-embedded and tissue sections (5 [mu] [iota] [eta] thick) were stained using haematoxylin-eosin. All slides were evaluated by an experienced pathologist who was blind to the study and the histological diagnosis of endometriosis was based on the morphological identification of endometrial glandular tissue and stroma.
(§6) For immunohistochemistry, sections were deparaffinized and rehydrated in graded ethanol. For antigen retrieval, sections were microwaved for 6 min in 0.1 M citrate buffer (pH 6.0) and endogenous peroxidase activity was blocked by a 20 min incubation in 3% H202/methanol. Sections were rinsed in PBS/TritonX-100, immersed for 15 min in PBS-bovine serum albumin (BSA) 1% to block unspecific binding sites, and then incubated with the selected primary antibody diluted in PBS-BSA 1%. […] The quantification of Ki-67 expression was carried out in a blind fashion by two independent observers; each observer counted at least 200 cells in more than 10 randomly chosen fields for each sample and the Ki-67 labeling index was expressed in percentage.

[2] = cited from earlier work
[3] = Preliminary clinical study: pain intensity by 10-points visual analogue scale (VAS); format: in vivo, women; details: NAC-treated patients, 10-points VAS
Experimental: (§7) Before treatment, the intensity of pain symptoms was measured by the means of a 10 points visual analogue scale (VAS) and the characteristics of the ovarian endometriomas by transvaginal ultrasounds. During NAC treatment, other treatments are excluded with the exception of analgesic to treat pain, when needed. Patients.
as §1, §2, §3
Pain perception was also modified after NAC treatment. Pain was evaluated, before and after the three-months treatment, by a 10-points visual analogue scale (VAS) with zero representing no pain and 10 representing the worst imaginable pain. Intensity of symptoms were classified as none (0), mild (1-4), moderate (5-7), or severe (8-10). NAC-treated patients reported an average pain reduction, from 7.6+−0.3 to 5.1+−0.8 (p<0.01) after three months of treatment.

ovarian endometriomas = experiment: Preliminary clinical study: size of ovarian endometriomas by ultrasound; format: in vivo; details: women
Experimental: Women with a first diagnosis of endometriosis, based on pain and on ovarian ultrasound evidence of the disease, and patients with a recurrence of pain and/or ovarian endometrioma after laparoscopic treatment were enrolled in the study,
as §7, §1, §2, §3

endometriotic lesions = experiment: Murine model of endometriosis: growth (total weight) of endometriotic lesions; format: in vivo, BALB/C mice; details: mice, gavage 44 mg/kg/day daily for 21 days; n=10 vs n=10; p<0.05
Experimental: 36 female, 6 to 8 weeks-old BALB/C mice were purchased from Charles River Italia (Calco, Italy). Pellet food (enriched standard diet; Mucedola, Milan, Italy) and water were provided ad libitum. Animals were kept on a light/dark cycle of 16/8 hours under controlled conditions. Prior to any invasive procedure, the mice were anaesthetized by intraperitoneal injection of 0.4 ml of a physiological solution containing 2.5% AVERTIN.
Induction of endometriosis was performed following the method described in Somigliana et al, Hum Reprod 1999 December; 14(12):2944-50. Surgical interventions were performed under clean conditions. Briefly, uterine horns of syngenic mice were removed through a small midline incision into the peritoneal space, just below the umbilicus, and put into a Petri dish containing phosphate-buffered saline (PBS). Endometrial fragments were obtained by finely chopping uterine horns by using a razor blade. Fragments were suspended in 0.6 ml of PBS and rapidly inoculated into the peritoneal cavity of recipient mice with a ratio of one donor to two recipients. The endometriosis-induced mice were randomly divided into two groups of 12 mice each: control and NAC-treatment. […]
At the end of the treatment, animals were sacrificed and endometriotic lesions were carefully excised from the surrounding tissue, their total weight and number was assessed. […]

[4] = Toxicity observation in the murine endometriosis model; format: in vivo; details: mice, 44 mg/kg/day by gavage, 21 days
Description: as §4

Ki-67 = Ki-67 immunohistochemistry (labeling index) in cysts from mice; format: in vivo, BALB/C mice; details: 44 mg/kg/day, 21 days
Experimental: as §4, §5, §6

Cox-2 protein = experiment: Immunohistochemical detection of Cox-2 protein in cysts from mice; format: in vivo, BALB/C mice; details: 44 mg/kg/day, 21 days
Experimental: as §4, §5, §6

P21 (cdkn1a) = experiment: RT-PCR of P21 gene expression in cysts from mice; format: in vivo, BALB/C mice; details: 44 mg/kg/day, 21 days
Experimental: as §4
Total RNA was isolated by lysing the frozen endometrial cysts with TissueLyser (QIAGEN, Milan, Italy) using TRIzol Reagent (Invitrogen, Milan, Italy) according to the manufacturer's instructions. One microgram of total RNA from each sample was treated with 1 U of DNAse I (Invitrogen) and reverse transcribed with 200 U of Superscript III Reverse Transcriptase (Invitrogen), using 250 ng of random primers in 20 [mu] l of final volume. […]
First, the ratio between the sample and the housekeeping gene was calculated by simultaneous amplification of gene-specific mRNA and 18S RNA in a single reaction tube. Since this procedure was not successful for all samples—likely due to the relative small number of specific transcripts thus of a preferential amplification of 18S mRNA—to prevent quantitative inaccuracies deriving from competitive effects, the target genes and 18 S cDNA generated in the same RT reaction were amplified in separate tubes. […] Semi quantitative PCR was performed in a 25 [mu] […] The densitometric analyses of the PCR products were performed using an image software Quantity One (VersaDOC, Bio-Rad).

vaginal hyperalgesia = experiment: Experimentally induced endometriosis in rats: escape response to vaginal distention (vaginal hyperalgesia); format: in vivo, Sprague-Dawley rats; details: 60 mg/kg/day, 8 weeks, 0.5 ml distension volume
Experimental: 16 adult virgin female Sprague-Dawley rats were used. They weighed 200-230 g at the start of the study and were housed individually in a temperature-controlled room in plastic cages lined with bedding. The rats had ad libitum access to water and rat chow and were maintained on a 12-h light/dark cycle, with lights on at 07:00. Reproductive status (proestrus, estrus, metestrus, and diestrus) was determined by daily vaginal lavage performed. Prior to induction of endometriosis rats were trained to perform an escape response to terminate vaginal distention produced by an inflatable latex balloon. A small uninflated latex balloon was tied to a thin catheter lubricated before being inserted into the mid-vaginal canal. Inflating the balloon with different volumes of air distended the vaginal canal. The pressure produced by each volume of distention was control measured through a small-volume pressure transducer. The testing apparatus was a small cylindrical plexiglass chamber designed to contain the rat just enough to prevent her from turning around. An opening in the rear of the chamber allowed the catheter attached to the vaginal stimulator to be connected to a stimulus apparatus. A photosensor determined the position of the rat in the chamber. If the rat extended, as part of an escape response, the light beam was broken and the stimulus was terminated. The rats were adopted to the testing chamber by placing it in the chamber for 15 min daily for 5 days. The rats were then, during training sessions, accustomed to a mechanical escape response to deflate vaginal distension, which involved the rat extending her head to interrupt the light beam. […] Time to response and escape responses were measured as a function of distention volume for each session, as described in Cason A M et al (Horm Behav. (2003), Vol. 44, pages 123-31). […] For each rat, the escape responses and pressures/volumes for all of that rat's sessions (at least 12 sessions) were combined, and the mean values calculated. […] The escape response to terminate vaginal distention, as described above, was assessed after 8 weeks.

## CC(=O)N[C@@H](CS)C(=O)O [NAC, N-acetyl-L-cysteine]
[1]; NAC-treated women, no statistical significance attributed
  cases of pregnancy: three
[1]; anecdotic observation by surgeon, endometrioma more regular and compact
  bleeding during laparoscopy after NAC treatment: relevant reduction in bleeding
[1]; one additional case
  recto-vaginal septum nodule: disappeared
[1]; women, 1.8 g NAC per day, three days each week, three months
  adverse side effects: No adverse side effects
E-cadherin
  E-cadherin localisation in cysts: mainly detected along cell-cell junctions
[2]; in vivo
  time to peak concentration in plasma: about one
  time to total clearance: six and twelve
[2]; plasma
  half-life: about three
[3]; 1.8 g per day three days each week, p<0.01
  average pain (VAS) after three months of treatment: 5.1+−0.8
[3]; baseline
  average pain (VAS) before treatment: 7.6+−0.3
Ovarian endometriomas; 1.8 g NAC per day, three consecutive days each week, three months, controls less than 10%
  cases with a decrease in cyst size (maximum diameter by ultrasound): 38%
Ovarian endometriomas; NAC treatment three months
  patients who decided to cancel or postpone the programmed laparoscopy: 21 out of 33
Endometriotic lesions
  total weight of endometriotic lesions vs controls: significant weight reduction
[4]
  body weight at the end of treatment: unchanged
Ki-67; 8 animals per group
  reduction in proliferating cells (Ki-67) relative to control mice: 54%
Ki-67; n = 8 × 5, p < 0.01
  Labeling index for Ki-67 with standard error: 0.87 ± 0.11%
Cox-2 protein
  Cox-2 protein immunohistochemical staining relative to cysts from control mice: quite a decreased staining
P21 (cdkn1a); never expressed in the 5 controls
  P21 gene expressed, number of examined NAC-treated samples: 3 of the 5
P21 (cdkn1a); not expressed in controls
  P21 observed, percent of NAC-treated animals: 60%
Vaginal hyperalgesia; daily NAC treatment
  relative reduction in escape response in relation to sham treated group: 18%
Vaginal hyperalgesia; intermittent NAC treatment (5 days and 2 days rest)
  relative reduction in escape response in relation to sham treated group: 28%
Vaginal hyperalgesia; pulsed NAC treatment (every other day)
  relative reduction in escape response in relation to sham treated group: 32%

From patent publication US8637573B2 (Iasomai AB, priority 2009, dated 2014)
